Assay results published in paper PMC6599250, “Functional diversity of inhibitors tackling the differentiation blockage of MLL-rearranged leukemia” (Journal of Hematology & Oncology, 2019).
Where two headings read alike, the source gives them in different places.

What was measured:
Format in all cases: cell-based
MOLM-14 (MLL-AF9) cells = assay: Cell proliferation (alamarBlue) MOLM-14; details: Homo sapiens, MOLM-14, MOLM-14 (MLL-AF9), read-out: IC50 proliferation
Procedure: (§1) Cells were seeded in the optimal growth medium at 4000–5000 cells/well in a 96 MTP and cultured 18–24 h before inhibitor treatment.

MOLM-13 (MLL-AF9) cells = assay: Cell proliferation (alamarBlue) MOLM-13; details: Homo sapiens, MOLM-13, MOLM-13 (MLL-AF9), read-out: IC50 proliferation
Procedure: as §1

OCI-AML-5 (MLL-WT) cells = assay: Cell proliferation (alamarBlue) OCI-AML-5; details: Homo sapiens, OCI-AML-5, OCI-AML-5 (MLL-WT), read-out: IC50 proliferation
Procedure: as §1

[1] = test system: MLL-fused cell lines (MV4-11, MOLM-13); assay: CD11b protein expression by flow cytometry, MLL-fused lines; details: 4 and 7 days of treatment
Procedure: (§2) Four thousand cells per well were seeded 24 h before they were treated with the indicated inhibitor in a 96 MTP. After 4 or 7 days of treatment, cells were washed with PBS and stained with CD11b - APC (BioLegend, San Diego, California, USA) and DAPI (Thermo Fisher Scientific, Waltham, Massachusetts, USA) or AnnexinV – FITC (BioLegend, San Diego, California, USA) and PI solution (Sigma-Aldrich St. Louis, Missouri, USA) using the FACS Canto II (BD Biosciences, Heidelberg, Germany) and data was analyzed with FACSDiva software.

MV4-11 (MLL-AF4) cells = assay: Cell proliferation (alamarBlue) MV4-11; details: Homo sapiens, MV4-11, MV4-11 (MLL-AF4), read-out: IC50 proliferation
Procedure: as §1

HL-60 (MLL-WT) cells = assay: Cell proliferation (alamarBlue) HL-60; details: Homo sapiens, HL-60 (MLL-WT), read-out: IC50 proliferation
Procedure: as §1

[2] = test system: OCI-AML-2 (MLL-AF9) cells; assay: Cell proliferation (alamarBlue) OCI-AML-2; details: Homo sapiens, OCI-AML2, OCI-AML-2 (MLL-AF9), read-out: IC50 proliferation
Procedure: as §1

RS4;11 (MLL-AF4) cells = assay: Cell proliferation (alamarBlue) RS4;11; details: Homo sapiens, RS4-11, RS4;11 (MLL-AF4), read-out: IC50 proliferation
Procedure: as §1

NOMO-1 (MLL-AF9) cells = assay: Cell proliferation (alamarBlue) NOMO-1; details: Homo sapiens, NOMO-1, NOMO-1 (MLL-AF9), read-out: IC50 proliferation
Procedure: as §1

EOL-1 (MLL-TD) cells = assay: Cell proliferation (alamarBlue) EOL-1; details: Homo sapiens, EOL1, EOL-1 (MLL-TD), read-out: IC50 proliferation
Procedure: as §1

OCI-AML-3 (MLL-WT) cells = assay: Cell proliferation (alamarBlue) OCI-AML-3; details: Homo sapiens, OCI-AML-3, OCI-AML-3 (MLL-WT), read-out: IC50 proliferation
Procedure: as §1

[3] = test system: MV4-11, MOLM-13 and HL-60 cells; assay: Cell proliferation, all three tested AML cell lines; details: 96 h; all tested cell lines (MV4-11, MOLM-13, HL-60), 4 days of treatment (Fig. 1a); read-out: anti-proliferation IC50s
Procedure: Cells were seeded in the optimal growth medium at 4000–5000 cells/well in a 96 MTP and cultured 18–24 h before inhibitor treatment. Upon treatment with the indicated inhibitor, cells were cultured for 24 h, 96 h, and 168 h and effects on proliferation were determined using alamarBlue Cell Viability Reagent (Thermo Fisher Scientific, Waltham, MA, USA).

[4] = test system: MV4-11, MOLM-13 and HL-60 cells; assay: Cell cycle analysis (PI, flow cytometry); details: 4 days of treatment (Figure S2)
Procedure: Cells were washed with PBS and fixed overnight at − 20 °C with 70% ethanol. Fixed cells were stained with PI solution (Sigma-Aldrich St. Louis, MO, USA) solution containing RNase A (Qiagen, Hilden, Germany). Fluorescence was measured with FACS Canto II (BD Biosciences, Heidelberg, Germany) flow cytometer and data was analyzed with FACSDiva software.

ML-2 (MLL-AF6) cells = assay: Cell proliferation (alamarBlue) ML-2; details: ML-2 (MLL-AF6), read-out: IC50 proliferation
Procedure: as §1

Jurkat (MLL-WT) cells = assay: Cell proliferation (alamarBlue) Jurkat; details: Homo sapiens, Jurkat (MLL-WT)
Procedure: as §1

HL-60 cells = assay: CD11b protein expression by flow cytometry, HL-60; details: non-fused HL-60 cell line, 4 and 7 days of treatment
Procedure: as §2

KOPN-8 (MLL-ENL) cells = assay: Cell proliferation (alamarBlue) KOPN-8; details: Homo sapiens, KOPN-8, KOPN-8 (MLL-ENL), read-out: IC50 proliferation
Procedure: as §1

SEM (MLL-AF4) cells = assay: Cell proliferation (alamarBlue) SEM; details: SEM (MLL-AF4), read-out: IC50 proliferation
Procedure: as §1

Cc1sc2c(c1C)C(c1ccc(Cl)cc1)=N[C@@H](CC(=O)Nc1ccc(O)cc1)c1nnc(C)n1-2 [OTX015]
IC50 (MOLM-14 (MLL-AF9) cells; D1): > 10000 nM
IC50 (MOLM-14 (MLL-AF9) cells; D4): 40 nM
IC50 (MOLM-14 (MLL-AF9) cells; D7): 60 nM
IC50 (MOLM-13 (MLL-AF9) cells; D1): > 10000 nM
IC50 (MOLM-13 (MLL-AF9) cells; D4): 30 nM
IC50 (MOLM-13 (MLL-AF9) cells; D7): 110 nM
IC50 (OCI-AML-5 (MLL-WT) cells; D1): > 10000 nM
IC50 (OCI-AML-5 (MLL-WT) cells; D4): 70 nM
IC50 (OCI-AML-5 (MLL-WT) cells; D7): 80 nM
CD11b protein level [1]: increased CD11b protein level in a dose and time-dependent manner
IC50 (MV4-11 (MLL-AF4) cells; D1): > 10000 nM
IC50 (MV4-11 (MLL-AF4) cells; D4): 140 nM
IC50 (MV4-11 (MLL-AF4) cells; D7): 180 nM
IC50 (HL-60 (MLL-WT) cells; 24 h, 1 day of treatment (D1)): > 10000 nM
IC50 (HL-60 (MLL-WT) cells; 96 h, 4 days of treatment (D4)): 70 nM
IC50 (HL-60 (MLL-WT) cells; 168 h, 7 days of treatment (D7)): 270 nM
IC50 ([2]; D1): > 10000 nM
IC50 ([2]; D7): 80 nM
IC50 (RS4;11 (MLL-AF4) cells; D1): > 10000 nM
IC50 (RS4;11 (MLL-AF4) cells; D4): 170 nM
IC50 (RS4;11 (MLL-AF4) cells; D7): 150 nM
IC50 (NOMO-1 (MLL-AF9) cells; D1): > 10000 nM
IC50 (NOMO-1 (MLL-AF9) cells; D4): 10 nM
IC50 (NOMO-1 (MLL-AF9) cells; D7): 10 nM
IC50 (EOL-1 (MLL-TD) cells; D1): > 10000 nM
IC50 (EOL-1 (MLL-TD) cells; D4): 30 nM
IC50 (EOL-1 (MLL-TD) cells; D7): 40 nM
IC50 (OCI-AML-3 (MLL-WT) cells; D1): > 10000 nM
IC50 (OCI-AML-3 (MLL-WT) cells; D4): 40 nM
IC50 (OCI-AML-3 (MLL-WT) cells; D7): 70 nM
IC50 [3]: 30 to 140 nM
cell cycle effect [4]: decrease of cells in S and G2/M phase with increasing concentrations
IC50 (ML-2 (MLL-AF6) cells; D1): > 10000 nM
IC50 (ML-2 (MLL-AF6) cells; D4): 390 nM
IC50 (ML-2 (MLL-AF6) cells; D7): 180 nM
IC50 (Jurkat (MLL-WT) cells; D1, read-out: IC50 proliferation): > 10000 nM
IC50 (Jurkat (MLL-WT) cells; D4, read-out: IC50 proliferation): 100 nM
IC50 (Jurkat (MLL-WT) cells; D7, read-out: IC50 proliferation): 170 nM
CD11b level (HL-60 cells): treatment did
IC50 (KOPN-8 (MLL-ENL) cells; D1): > 10000 nM
IC50 (KOPN-8 (MLL-ENL) cells; D4): 300 nM
IC50 (KOPN-8 (MLL-ENL) cells; D7): 320 nM
IC50 (SEM (MLL-AF4) cells; D1): > 10000 nM
IC50 (SEM (MLL-AF4) cells; D4): 70 nM
IC50 (SEM (MLL-AF4) cells; D7): 80 nM
